Earlier results in patent US12036313B2, “Personal lubricants comprising lambda-carrageenan” (LANVIRA, LLC, priority 2018, dated 2024).

Tested on: HPV
Settings: in vitro and in vivo

In the case of lambda-carrageenan, the “Activity against HPV” value is given as “active against HPV”.
